Values quoted from earlier work in patent US20260344672A1, “CROP ENHANCEMENT” (SYNGENTA CROP PROTECTION AG, priority 2023, published 2026).

System: plant
Details: reported in the literature

Compound | early flowering and grain maturation | leaf area and plant height | photosynthetic capacity (plant greenness) | root system and root hair development | tiller number and productivity | plant health, tolerance to environmental stresses
N#Cc1nn(-c2c(Cl)cc(C(F)(F)F)cc2Cl)c(N)c1[S+]([O-])C(F)(F)F (stereo not drawn) [fipronil] | stimulate early flowering and grain maturation | increase leaf area and plant height | increase photosynthetic capacity (plant greenness) | enhance overall root system and root hair development | increase tiller number and productivity | 
COC(=O)N(OC)c1ccccc1COc1ccn(-c2ccc(Cl)cc2)n1 [pyraclostrobin] |  |  |  |  |  | improve plant health e.g. to improve the tolerance to environmental stresses
